{
  "source": "PubChem BioAssay AID720646",
  "about": "(Broad Institute, 2013)",
  "note": "Activity calls are given as the source filed them.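 Rule for the calls: active = fitted rise in melting shift crosses a set limit at or below the top valid dose tested; inconclusive = flat fit at mid-level activity, or a poor quality fit; inactive = the rest.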",
  "data": [
    {"target": "Fibroblast growth factor 22 (Homo sapiens) (UniProt Q9HCT0)", "sequence (Q9HCT0 whole entry, looked up)": "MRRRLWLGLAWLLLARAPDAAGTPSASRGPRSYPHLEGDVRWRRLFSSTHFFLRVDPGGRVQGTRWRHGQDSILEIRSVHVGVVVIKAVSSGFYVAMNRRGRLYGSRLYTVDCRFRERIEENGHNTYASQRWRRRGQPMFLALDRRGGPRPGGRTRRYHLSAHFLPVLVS", "assay": "binders of human FGF22 protein, dose response, FGF22 synaptogenesis inhibitor project, biophysical, thermal shift, cherry-pick retest (AID 720646)", "conditions": "recombinant FGF22 thermal shift, SYPRO orange fluorescence", "values": [
      {"molecule": "CCC(=O)Nc1nc(C)c(-c2csc(Nc3ccccn3)n2)s1", "AC": "21.6 µM"},
      {"molecule": "O=C(Nc1ccc(S(=O)(=O)N2CCOCC2)cc1)c1ccc(F)cc1", "AC": "> 38 µM (inactive)"},
      {"molecule": "O=S(=O)(Nc1nnc(C(F)(F)F)s1)c1ccc(Cl)cc1", "AC": "37.5 µM"},
      {"molecule": "O=C(N/N=C\\c1c[nH]c2ccccc12)c1ccc(O)cc1", "AC": "16.8 µM"},
      {"molecule": "Cn1c(=O)c2c(-c3ccccc3)n(-c3cc(Cl)c([N+](=O)[O-])cc3O)cc2n(C)c1=O", "AC": "28.3 µM"},
      {"molecule": "O=C(N/N=C/c1c[nH]c2ccccc12)c1cccs1", "AC": "23.4 µM"},
      {"molecule": "CC1([N+](=O)[O-])COP(=O)(NC2CC2)OC1", "note": "(centres undefined)", "AC": "21.5 µM"},
      {"molecule": "O=C(N/N=C/c1c[nH]c2ccccc12)c1cccc(Cl)c1", "AC": "27.9 µM"},
      {"molecule": "COc1ccc(/C=N/Nc2ccc([N+](=O)[O-])cc2)cc1O", "AC": "36.6 µM"},
      {"molecule": "CC1C=NC(S(=O)(=O)N2CC[C@@H]3[C@@H](CO)N(C)c4ccc(-c5ccc(F)cc5)cc4[C@@H]32)=N1", "note": "(some centres undefined)", "AC": "> 38 µM (inactive)"},
      {"molecule": "N#Cc1ccc(NC(=O)Nc2cccc(C#N)c2)cc1", "AC": "30.1 µM"},
      {"molecule": "COc1ccc(N2CCN(CCOc3ccc4c(C)cc(=O)oc4c3)CC2)cc1", "AC": "> 38 µM (inactive)"},
      {"molecule": "CNC[C@H]1Oc2ccc(NC(=O)Cc3cn(C)c4ccccc34)cc2C(=O)N([C@H](C)CO)C[C@H]1C", "AC": "> 42 µM (inactive)"},
      {"molecule": "Cc1ccc(NC(=O)c2ccc(OCc3c(C)noc3C)cc2)c(C)c1", "AC": "34.2 µM"},
      {"molecule": "CC1(C(=O)NS(=O)(=O)Cc2cccc(Cl)c2)CCN1C(=O)C1(c2ccc(Cl)cc2)CCC1", "note": "(centres undefined)", "AC": "24.4 µM"},
      {"molecule": "C[C@@H]1CN([C@@H](C)CO)S(=O)(=O)c2ccc(-c3cccc(C#N)c3)cc2O[C@@H]1CN(C)C(=O)Nc1cc(F)ccc1F", "AC": "> 38 µM (inactive)"},
      {"molecule": "CSc1ccc(/C=N/NC(=O)c2ccc3nc[nH]c3c2)cc1", "AC": "37.7 µM"},
      {"molecule": "CCC(CC)CN1CCC(CN2C(=O)C(=O)NC[C@@H]2CC(C)C)CC1", "AC": "> 38 µM (inactive)"},
      {"molecule": "O=C(N[C@H]1C=C[C@H](CC(=O)N2CCCCC2)O[C@H]1CO)c1cccc(F)c1", "AC": "35.5 µM"},
      {"molecule": "CC(=O)Nc1cccc(C(=O)N/N=C/c2c[nH]c3ccccc23)c1", "AC": "13.7 µM"},
      {"molecule": "Cc1cc(C(=O)N/N=C/c2c[nH]c3ccccc23)cs1", "AC": "30.3 µM"},
      {"molecule": "Cc1[nH]c2ccc(C(=O)OCC(=O)Nc3cccc(S(N)(=O)=O)c3)cc2c1C", "AC": "10.1 µM"},
      {"molecule": "Cc1cc(C)cc(NC(=O)CN2C(=O)NC(Cc3c[nH]c4ccccc34)C2=O)c1", "note": "(centres undefined)", "AC": "> 38 µM (inactive)"},
      {"molecule": "CC(C)c1c(C(=O)N/N=C/c2c[nH]c3ccccc23)nnn1-c1nonc1N", "AC": "27.4 µM"},
      {"molecule": "Cc1onc(-c2ccccc2)c1C(=O)Nc1ncc([N+](=O)[O-])s1", "AC": "34 µM"},
      {"molecule": "NC(=O)c1ccsc1NC(=O)COC(=O)Cc1c[nH]c2ccccc12", "AC": "27.6 µM"},
      {"molecule": "O=S1(=O)N=C(N(Cc2cccs2)c2ccc(O)cc2)c2ccccc21", "AC": "20.4 µM"},
      {"molecule": "COc1ccc(NC(=O)CCCN2C(=O)CN(C)C2=O)c(OC)c1", "AC": "> 38 µM (inactive)"},
      {"molecule": "O=C(CC1SC(=O)NC1=O)Nc1ccc(Cl)cc1", "note": "(centres undefined)", "AC": "33.2 µM"},
      {"molecule": "O=C(O)c1[nH]c2ccc(Br)cc2c1CCN1C(=O)c2cccc([N+](=O)[O-])c2C1=O", "AC": "> 38 µM (inactive)"},
      {"molecule": "O=C(Cc1n[nH]c(=O)[nH]c1=O)N/N=C/c1c(O)ccc2ccccc12", "AC": "> 38 µM (inactive)"},
      {"molecule": "C[C@@H]1CN([C@H](C)CO)C(=O)Cc2cc(N(C)C)ccc2O[C@@H]1CN(C)Cc1ccc(Cl)c(Cl)c1", "AC": "37.3 µM"},
      {"molecule": "COC(=O)C(C)Oc1cc(OC(C)C(=O)OC)c2c(C)c(Cl)c(=O)oc2c1", "note": "(centres undefined)", "AC": "> 38 µM (inactive)"},
      {"molecule": "Nc1nnc(CC(=O)N/N=C/c2cc([N+](=O)[O-])cc(Br)c2O)s1", "AC": "24.7 µM"}
    ]}
  ]
}
